Test results from US7700786B2, “Pyrazole derivative, intermediate therefor, processes for producing these, and herbicide containing these as active ingredient” (Sagami Chemical Research Center, priority 2001, dated 2010).

Row | SMILES | melting point [°C]
1 | CCNC(=O)n1nc(Oc2ncc(C(F)(F)F)cc2Cl)cc1CC [Compound 4-88, N-ethyl-3-(3-chloro-5-trifluoromethylpyridin-2-yloxy)-5-ethylpyrazole-1-carboxamide] | 85 to 86
2 | CCc1c(Oc2ccc(C(F)(F)F)cc2[N+](=O)[O-])nn(C(=O)NC)c1C | 81 to 82
3 | CNC(=O)n1nc(Oc2ccc(C(F)(F)F)cc2[N+](=O)[O-])cc1C(F)(F)F | 102 to 104
4 | Cc1cc(Oc2ncc(C(F)(F)F)cc2Cl)nn1C(=O)N(C)C [Compound 4-10, N,N-Dimethyl-3-(3-chloro-5-trifluoromethylpyridin-2-yloxy)-5-methylpyrazole-1-carboxamide] | 102 to 104
5 | CCNC(=S)n1nc(Oc2c(F)cc(C(F)(F)F)cc2Cl)cc1C | 114 to 115
6 | CCOc1cc(Oc2cc(C)[nH]n2)ccc1[N+](=O)[O-] [Compound 1-6, 3-(3-ethoxy-4-nitrophenyloxy)-5-methylpyrazole] | 123 to 124
7 | Cc1cc(Oc2ccc(N)cc2C(F)(F)F)n[nH]1 [Compound 1-37, 3-(4-amino-2-trifluoromethylphenyloxy)-5-methylpyrazole] | 143 to 145
8 | Cc1cc(Oc2cccc(C(F)(F)F)c2)nn1C(=O)NCC1CCCO1 (stereo not shown) [Example 199, N-tetrahydrofurfuryl-5-methyl-3-(3-trifluoromethylphenyloxy)pyrazole-1-carboxamide] | 101 to 102
9 | Cc1cc(Oc2c(Cl)cc(C(F)(F)F)cc2Cl)n[nH]1 [Compound 1-17, 3-(2,6-dichloro-4-trifluoromethylphenyloxy)-5-methylpyrazole] | 153 to 155
10 | CNC(=O)n1nc(Oc2ccc(C(F)(F)F)cc2N)cc1C [Example 242, N-methyl-3-(2-amino-4-trifluoromethylphenyloxy)-5-methylpyrazole-1-carboxamide] | 93 to 94
11 | Cc1cc(Oc2ccc([N+](=O)[O-])c(C(F)(F)F)c2)n[nH]1 [Compound 1-42, 5-methyl-3-(4-nitro-3-trifluoromethylphenyloxy)pyrazole] | 96 to 98
12 | CC(C)N(C(=O)n1nc(Oc2ccc(C(F)(F)F)cc2[N+](=O)[O-])cc1C(F)(F)F)C(C)C [Example 241, N,N-Diisopropyl-3-(2-nitro-4-trifluoromethylphenyloxy)-5-trifluoromethylpyrazole-1-carboxamide] | 118 to 120
13 | Cc1cc(Oc2c(Cl)cc(C(F)(F)F)cc2[N+](=O)[O-])n[nH]1 [Compound 1-21, 3-(2-chloro-6-nitro-4-trifluoromethylphenyloxy)-5-methylpyrazole] | 120 to 123
14 | COCNC(=S)n1nc(Oc2c(Cl)cc(C(F)(F)F)cc2Cl)cc1C [Example 178, N-methoxymethyl-3-(2,6-dichloro-4-trifluoromethylphenyloxy)-5-methylpyrazole-1-carbothioamide] | 95 to 96
15 | CCNC(=O)n1nc(Oc2ccc([N+](=O)[O-])c(OCC)c2)cc1C [Example 98, N-ethyl-3-(3-ethoxy-4-nitrophenyloxy)-5-methylpyrazole-1-carboxamide] | 110 to 112
16 | CNC(=O)n1nc(Oc2c(Cl)cc(C(F)(F)F)cc2Cl)cc1C | 113 to 114
17 | Cc1cc(Oc2ccc([N+](=O)[O-])c(Cl)c2)n[nH]1 [Compound 1-23, 3-(3-chloro-4-nitrophenyloxy)-5-methylpyrazole] | 91 to 93
18 | Cc1cc(Oc2ccc([N+](=O)[O-])cc2)n[nH]1 [Compound 1-47, 5-methyl-3-(4-nitrophenyloxy)pyrazole] | 124 to 125
19 | Cc1cc(Oc2ccc([N+](=O)[O-])c(F)c2)n[nH]1 [Compound 1-26, 3-(3-fluoro-4-nitrophenyloxy)-5-methylpyrazole] | 80 to 83
20 | CCNC(=O)n1nc(Oc2ncc(C(F)(F)F)cc2Cl)c(CC)c1C [Compound 4-85, N-ethyl-3-(3-chloro-5-trifluoromethylpyridin-2-yloxy)-4-ethyl-5-methylpyrazole-1-carboxamide] | 101 to 102
21 | CCNC(=O)n1nc(Oc2ccc(F)cc2[N+](=O)[O-])cc1C [Example 85, N-ethyl-3-(4-fluoro-2-nitrophenyloxy)-5-methylpyrazole-1-carboxamide] | 81 to 84
22 | C=CNC(=S)n1nc(Oc2ncc(C(F)(F)F)cc2Cl)cc1C [Compound 4-41, N-vinyl-3-(3-chloro-5-trifluoromethylpyridin-2-yloxy)-5-methylpyrazole-1-carbothioamide] | 90 to 92
23 | CCNC(=O)n1nc(Oc2ccc(N)c(C(F)(F)F)c2)cc1C [Example 100, N-ethyl-3-(4-amino-3-trifluoromethylphenyloxy)-5-methylpyrazole-1-carboxamide] | 102 to 104
24 | Cc1c(Oc2ncc(C(F)(F)F)cc2Cl)nn(C(=O)NC(C)C)c1C [Compound 4-82, N-isopropyl-3-(3-chloro-5-trifluoromethylpyridin-2-yloxy)-4,5-dimethylpyrazole-1-carboxamide] | 78 to 80
25 | CNC(=O)n1nc(Oc2c(F)cc(C(F)(F)F)cc2Cl)cc1C | 87 to 88
26 | Cc1cc(Oc2c([N+](=O)[O-])cc([N+](=O)[O-])cc2C(F)(F)F)n[nH]1 | 145 to 147
27 | CCNC(=O)n1nc(Oc2ncc(C(F)(F)F)cc2Cl)cc1C(F)(F)F [Compound 4-93, N-ethyl-3-(3-chloro-5-trifluoromethylpyridin-2-yloxy)-5-trifluoromethylpyrazole-1-carboxamide] | 52 to 54
28 | Cc1c(Cl)c(Oc2c(Cl)cc(C(F)(F)F)cc2Cl)nn1C(=O)NCCCl | 141 to 143

The next lines start with the values.

Row | melting point [°C] | SMILES
29 | 169 to 171 | CCNC(=O)n1nc(Oc2c([N+](=O)[O-])cc([N+](=O)[O-])cc2C(F)(F)F)cc1C
30 | 123 to 125 | Cc1cc(Oc2ccc(C#N)cc2C(F)(F)F)n[nH]1 [Compound 1-30, 3-(4-cyano-2-trifluoromethylphenyloxy)-5-methylpyrazole]
31 | 152 to 154 | Cc1cc(Oc2c(Cl)cc(C(F)(F)F)cc2Cl)nn1C(N)=O [Example 223, 3-(2,6-dichloro-4-trifluoromethylphenyloxy)-5-methylpyrazole-1-carboxamide]
32 | 88 to 90 | CCNC(=O)n1nc(Oc2c(Cl)cc(C(F)(F)F)cc2Cl)cc1C(=O)OC [Example 175, methyl 3-(2,6-dichloro-4-trifluoromethylphenyloxy)-1 (N-ethylcarbamoyl)pyrazole-5-carboxylate]
33 | 104 to 106 | Cc1cc(Oc2ccc(C(F)(F)F)cc2[N+](=O)[O-])nn1C(=O)NC(C)(C)C [Example 86, N-tert-butyl-5-methyl-3-(2-nitro-4-trifluoromethylphenyloxy)-pyrazole-1-carboxamide]
34 | 171 to 174 | Cc1cc(Oc2c(F)cc(C(F)(F)F)cc2Cl)n[nH]1 [Compound 1-19, 3-(2-chloro-6-fluoro-4-trifluoromethylphenyloxy)-5-methylpyrazole]
35 | 81 to 84 | Cc1cc(Oc2ccc(F)cc2[N+](=O)[O-])n[nH]1 [Compound 1-29, 3-(4-fluoro-2-nitrophenyloxy)-5-methylpyrazole]
36 | 114 to 117 | Cc1cc(Oc2ccc([N+](=O)[O-])c(C)c2)n[nH]1 [Compound 1-4, 5-methyl-3-(4-nitro-3-methylphenyloxy)pyrazole]
37 | 61 to 63 | CNC(=O)n1nc(Oc2ncc(C(F)(F)F)cc2Cl)cc1C(F)(F)F [Compound 4-91, N-methyl-3-(3-chloro-5-trifluoromethylpyridin-2-yloxy)-5-trifluoromethylpyrazole-1-carboxamide]
38 | 88 to 89 | CCc1c(Cl)c(Oc2ncc(C(F)(F)F)cc2Cl)nn1C(=O)NC [Compound 4-89, N-methyl-4-chloro-3-(3-chloro-5-trifluoromethylpyridin-2-yloxy)-5-ethylpyrazole-1-carboxamide]
39 | 113 to 115 | CNC(=O)n1nc(Oc2ccc([N+](=O)[O-])cc2C(F)(F)F)c(C)c1C
40 | 88 to 89 | CCNC(=O)n1nc(Oc2c(Cl)cc(C(F)(F)F)cc2Cl)cc1-c1ccc(Cl)cc1 [Example 176, N-ethyl-5-(4-chlorophenyl)-3-(2,6-dichloro-4-trifluoromethylphenyloxy)pyrazole-1-carboxamide]
41 | 93 to 95 | Cc1cc(Oc2ncc(C(F)(F)F)cc2Cl)n[nH]1 [Compound 2-5, 3-(3-chloro-5-trifluoromethylpyridin-2-yloxy)-5-methylpyrazole]
42 | 86 to 88 | CCCCCCNC(=O)n1nc(Oc2c(Cl)cc(C(F)(F)F)cc2Cl)c(Cl)c1C [Example 246, N-hexyl-4-chloro-3-(2,6-dichloro-4-trifluoromethylphenyloxy)-5-methylpyrazole-1-carboxamide]
43 | 109 to 111 | Cc1c(Cl)c(Oc2c(Cl)cc(C(F)(F)F)cc2Cl)nn1C(=O)NC(C)C [Example 249, N-isopropyl-4-chloro-3-(2,6-dichloro-4-trifluoromethylphenyloxy)-5-methylpyrazole-1-carboxamide]
44 | 58 to 60 | Cc1cc(Oc2ncc(C(F)(F)F)cc2Cl)nn1C(=O)N(C(C)C)C(C)C [Compound 4-27, N,N-diisopropyl-3-(3-chloro-5-trifluoromethylpyridin-2-yloxy)-5-methylpyrazole-1-carboxamide]
45 | 67 to 69 | CCNC(=O)n1nc(Oc2ccc([N+](=O)[O-])c(C)c2)cc1C [Example 96, N-ethyl-5-methyl-3-(3-methyl-4-nitrophenyloxy)pyrazole-1-carboxamide]
46 | 97 to 100 | CCc1cc(Oc2ccc([N+](=O)[O-])cc2C(F)(F)F)nn1C(=O)NC
47 | 84 to 86 | CCc1c(Oc2ncc(C(F)(F)F)cc2Cl)nn(C(=O)NC)c1C
48 | 89 to 91 | Cc1cc(Oc2ccc(C(F)(F)F)cc2[N+](=O)[O-])n[nH]1 [Compound 1-44, 5-methyl-3-(2-nitro-4-trifluoromethylphenyloxy)pyrazole]
49 | 111 to 113 | Cc1cc(Oc2c(Cl)cc(C(F)(F)F)cc2Cl)nn1C(=O)NCC=O [Example 229, N-formylmethyl-3-(2,6-dichloro-4-trifluoromethylphenyloxy)-5-methylpyrazole-1-carboxamide]
